Measured values taken from ChEMBL document CHEMBL1201862, “PubChem BioAssay data set” (2004).
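Values below derive from 48-hour exposures of cells grown in 96-well plates, with endpoints linearly interpolated between the two concentrations bracketing the appropriate inhibition level. Abbreviation: GI50, concentration required for 50% inhibition of growth.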 The source made the active and inactive calls. No stated cut-off is given here; in the data, active = GI50 up to about 1.1 µM and inactive = higher.

How the values were obtained:
Assay in all cases: inhibition of tumour cell growth, NCI panel, 48 h
786-0 = tested on: 786-0
A549 = tested on: A549
COLO 205 = tested on: COLO 205
HT-29 = tested on: HT-29
IGROV-1 = tested on: IGROV-1
M14 = tested on: M14
MDA-MB-231 = tested on: MDA-MB-231
MDA-MB-435 = tested on: MDA-MB-435
MDA-N = tested on: MDA-N
Malme-3M = tested on: Malme-3M
NCI-H226 = tested on: NCI-H226
OVCAR-4 = tested on: OVCAR-4
OVCAR-5 = tested on: OVCAR-5
SK-MEL-5 = tested on: SK-MEL-5
SN12C = tested on: SN12C
SNB-75 = tested on: SNB-75
SR = tested on: SR
UACC-62 = tested on: UACC-62
UO-31 = tested on: UO-31

Row | Compound | GI50 (786-0) | GI50 (A549) | GI50 (COLO 205) | GI50 (HT-29) | GI50 (IGROV-1) | GI50 (M14) | GI50 (MDA-MB-231) | GI50 (MDA-MB-435) | GI50 (MDA-N) | GI50 (Malme-3M) | GI50 (NCI-H226) | GI50 (OVCAR-4) | GI50 (OVCAR-5) | GI50 (SK-MEL-5) | GI50 (SN12C) | GI50 (SNB-75) | GI50 (SR) | GI50 (UACC-62) | GI50 (UO-31)
1 | Cc1c2c(n(CCc3ccc(Cl)cc3)c1C)NN=C(C#N)S2(=O)=O | > 100 µM (inactive) | > 100 µM (inactive) | > 100 µM (inactive) | > 100 µM (inactive) | > 100 µM (inactive) | 91.4 µM (inactive) | > 100 µM (inactive) | 42.2 µM (inactive) | 64.7 µM (inactive) | 51.8 µM (inactive) | > 100 µM (inactive) | > 100 µM (inactive) | > 100 µM (inactive) | > 100 µM (inactive) | > 100 µM (inactive) | > 100 µM (inactive) | 61.9 µM (inactive) | > 100 µM (inactive) | > 100 µM (inactive)
2 | C#CCC1(C(=O)OCC)C(=O)c2ccccc2N(C)C1=O (configuration not stated) |  |  | > 100 µM (inactive) | > 100 µM (inactive) | > 100 µM (inactive) | > 100 µM (inactive) |  |  |  | > 100 µM (inactive) | 62.5 µM (inactive) |  |  | 70.3 µM (inactive) | 67.9 µM (inactive) | 16.6 µM (inactive) |  | > 100 µM (inactive) | 30.8 µM (inactive)
3 | Nc1nc(=O)[nH]c2c1cnn2C1CCCCO1 (configuration not stated) |  | > 100 µM (inactive) | > 100 µM (inactive) | > 100 µM (inactive) | > 100 µM (inactive) | > 100 µM (inactive) |  |  |  | > 100 µM (inactive) | 39.3 µM (inactive) | > 100 µM (inactive) | 64 µM (inactive) | 70.3 µM (inactive) | > 100 µM (inactive) | > 100 µM (inactive) | 56 µM (inactive) |  | > 100 µM (inactive)
4 | COc1ccc(/C=C/c2cc(OC)c(OCc3ccccc3)c(OC)c2)cc1 | > 100 µM (inactive) | > 100 µM (inactive) | > 100 µM (inactive) | 27.9 µM (inactive) | > 100 µM (inactive) | 87.5 µM (inactive) |  |  |  | > 100 µM (inactive) | > 100 µM (inactive) | 23.6 µM (inactive) | 8.99 µM (inactive) |  | > 100 µM (inactive) | > 100 µM (inactive) | 26.4 µM (inactive) | 77.1 µM (inactive) | 52.1 µM (inactive)
5 | C/C(CCn1[nH]c(=O)ccc1=O)=N\NC(=O)C(=O)NN | > 100 µM (inactive) | > 100 µM (inactive) | > 100 µM (inactive) | > 100 µM (inactive) | > 100 µM (inactive) | > 100 µM (inactive) |  |  |  | > 100 µM (inactive) | > 100 µM (inactive) | > 100 µM (inactive) | > 100 µM (inactive) | > 100 µM (inactive) | > 100 µM (inactive) |  |  | > 100 µM (inactive) | > 100 µM (inactive)
6 | Nc1nc(SCc2ccccc2Cl)c2[nH]cnc2n1 |  | 73.1 µM (inactive) | 91.6 µM (inactive) |  | 41.8 µM (inactive) | > 100 µM (inactive) |  |  |  | 70.8 µM (inactive) |  |  | 96.4 µM (inactive) | 48.8 µM (inactive) | 72.3 µM (inactive) |  | 64.9 µM (inactive) | 61 µM (inactive) | 77.6 µM (inactive)
7 | COC(=O)c1ccccc1NC(=O)C(=O)CC(=O)CC(c1ccccc1)c1c(O)c2ccccc2oc1=O (configuration not stated) | > 100 µM (inactive) | > 100 µM (inactive) | > 100 µM (inactive) | > 100 µM (inactive) | > 100 µM (inactive) | > 100 µM (inactive) |  |  |  | > 100 µM (inactive) |  | > 100 µM (inactive) | > 100 µM (inactive) | > 100 µM (inactive) | > 100 µM (inactive) |  | > 100 µM (inactive) | > 100 µM (inactive) | > 100 µM (inactive)
8 | CC(C)=CC(=O)Cc1nc2ccccc2[nH]c1=O | 82.4 µM (inactive) | > 100 µM (inactive) | > 100 µM (inactive) | > 100 µM (inactive) | > 100 µM (inactive) | > 100 µM (inactive) |  |  |  | > 100 µM (inactive) | > 100 µM (inactive) | 52.2 µM (inactive) | > 100 µM (inactive) | > 100 µM (inactive) | > 100 µM (inactive) | 40.3 µM (inactive) | > 100 µM (inactive) | > 100 µM (inactive) | 68.7 µM (inactive)
9 | CCOC(=O)C(=O)NCCCN1CCOCC1 |  | > 100 µM (inactive) | > 100 µM (inactive) | > 100 µM (inactive) | > 100 µM (inactive) | > 100 µM (inactive) |  |  |  | > 100 µM (inactive) | > 100 µM (inactive) | > 100 µM (inactive) | > 100 µM (inactive) | > 100 µM (inactive) | > 100 µM (inactive) | > 100 µM (inactive) |  | > 100 µM (inactive) | > 100 µM (inactive)
10 | O=[N+]([O-])c1ccc(COc2cccc3cccnc23)cc1 | 17.2 µM (inactive) | 31 µM (inactive) | 17.2 µM (inactive) | 31.6 µM (inactive) | 22.5 µM (inactive) | 10.6 µM (inactive) |  |  |  | 33 µM (inactive) | 18.7 µM (inactive) | 12.4 µM (inactive) | 38.5 µM (inactive) | 17.1 µM (inactive) | 22.6 µM (inactive) | 26.9 µM (inactive) | 3.47 µM (inactive) | 17.3 µM (inactive) | 10.1 µM (inactive)
11 | CCOC(=O)C(COS(C)(=O)=O)(COS(C)(=O)=O)C(=O)OCC |  | > 100 µM (inactive) | > 100 µM (inactive) | > 100 µM (inactive) |  | > 100 µM (inactive) | > 100 µM (inactive) | > 100 µM (inactive) | > 100 µM (inactive) |  | > 100 µM (inactive) | > 100 µM (inactive) |  | > 100 µM (inactive) | > 100 µM (inactive) | > 100 µM (inactive) | > 100 µM (inactive) |  | > 100 µM (inactive)
12 | C=C=CC(NC(=O)c1ccccc1)(C(=O)O)C(F)(F)F (configuration not stated) |  | > 100 µM (inactive) | > 100 µM (inactive) | > 100 µM (inactive) | > 100 µM (inactive) | > 100 µM (inactive) |  |  |  | > 100 µM (inactive) | > 100 µM (inactive) | > 10 µM (inactive) | > 100 µM (inactive) | > 100 µM (inactive) | > 100 µM (inactive) | > 100 µM (inactive) | > 100 µM (inactive) |  | 
13 | C=CCc1cc(OC)c2c(c1)C(OC(C)=O)CC(c1ccc(OC)c(OC)c1)O2 (configuration not stated) |  | > 100 µM (inactive) | > 100 µM (inactive) | > 100 µM (inactive) | > 100 µM (inactive) | > 100 µM (inactive) |  |  |  | > 100 µM (inactive) | > 100 µM (inactive) | > 100 µM (inactive) | > 100 µM (inactive) | > 100 µM (inactive) | > 100 µM (inactive) | 17.1 µM (inactive) | > 100 µM (inactive) | > 100 µM (inactive) | > 100 µM (inactive)
14 | CNC(=O)CCNC(=O)CCC(=O)N(C)C | > 100 µM (inactive) | > 100 µM (inactive) | > 100 µM (inactive) | > 100 µM (inactive) |  | > 100 µM (inactive) | > 100 µM (inactive) | > 100 µM (inactive) | > 100 µM (inactive) | 15.7 µM (inactive) |  | > 100 µM (inactive) | > 100 µM (inactive) | > 100 µM (inactive) | > 100 µM (inactive) |  | 0.951 µM (active) | > 100 µM (inactive) | > 100 µM (inactive)
15 | CCC(C)CN1C(=O)NC(Cc2ccccc2)C1=O (configuration not stated) |  | > 100 µM (inactive) |  | > 100 µM (inactive) |  | > 100 µM (inactive) |  |  |  | > 100 µM (inactive) | > 100 µM (inactive) |  | > 100 µM (inactive) |  | > 100 µM (inactive) | > 100 µM (inactive) | > 100 µM (inactive) |  | > 100 µM (inactive)
16 | C=C(N=[N+]=[N-])c1cn(C2CC(O)C(CO)O2)c(=O)[nH]c1=O (configuration not stated) | > 100 µM (inactive) | > 100 µM (inactive) | > 100 µM (inactive) | > 100 µM (inactive) | > 100 µM (inactive) | > 100 µM (inactive) |  |  |  | > 100 µM (inactive) | > 100 µM (inactive) |  | > 100 µM (inactive) | > 100 µM (inactive) | > 100 µM (inactive) | > 100 µM (inactive) | > 100 µM (inactive) | > 100 µM (inactive) | > 100 µM (inactive)
17 | O=C(O)[C@@H](NS(=O)(=O)c1ccc(F)cc1)c1ccccc1 | > 100 µM (inactive) | > 100 µM (inactive) | > 100 µM (inactive) | > 100 µM (inactive) | > 100 µM (inactive) | > 100 µM (inactive) |  |  |  | > 100 µM (inactive) | > 100 µM (inactive) | > 100 µM (inactive) | > 100 µM (inactive) | > 100 µM (inactive) | > 100 µM (inactive) | > 100 µM (inactive) |  | > 100 µM (inactive) | > 100 µM (inactive)
18 | Cc1c(/C=N/N(C)C)oc2c1cc(O)c1ncccc12 | 6.28 µM (inactive) | 5.01 µM (inactive) | 35.8 µM (inactive) | 41.2 µM (inactive) | 14.3 µM (inactive) | 3.25 µM (inactive) |  |  |  | 11.2 µM (inactive) | 13.2 µM (inactive) | 4.75 µM (inactive) | 7.24 µM (inactive) | 6.9 µM (inactive) | 3.96 µM (inactive) | 6.92 µM (inactive) | 2.77 µM (inactive) | 13.8 µM (inactive) | 2.08 µM (inactive)
19 | O=C(/C=C/c1ccc2c(c1)OCO2)CC(=O)/C=C/c1ccc2c(c1)OCO2 | 49.8 µM (inactive) | > 100 µM (inactive) | > 100 µM (inactive) | > 100 µM (inactive) | 23.5 µM (inactive) | > 100 µM (inactive) | 34.6 µM (inactive) | > 100 µM (inactive) | 40 µM (inactive) | > 100 µM (inactive) | > 100 µM (inactive) | 19.1 µM (inactive) | > 100 µM (inactive) | > 100 µM (inactive) | > 100 µM (inactive) | > 100 µM (inactive) | 39.1 µM (inactive) | > 100 µM (inactive) | > 100 µM (inactive)
